The subject of assay [1] is U2OS cells. Description: Olaparib sensitivity of stable U2OS cell line ectopically expressing recombinant SASH1. The format is cell-based. An excerpt: FIG. 6. Over expression of SASH1 infers resistance to Olaparib in U2OS cells.
Further to this, we made a stable U2OS cell line ectopically expressing recombinant SASH1.

Assay [2] deals with cell lines depleted of SASH1. Description: Olaparib sensitivity of cell lines depleted of SASH1 using siRNA. The format is cell-based. Particulars: number of cell lines tested. An excerpt:
FIG. 5. Depletion of SASH1 increases cancer cell sensitivity to Olaparib. A) Cell lines depleted of SASH1 have a reduced IC50 to Olaparib. B) Combined data of cell lines with SASH1 depletion showing a significant reduction in IC50 to Olaparib.

With `O=C(c1cc(Cc2n[nH]c(=O)c3ccccc23)ccc1F)N1CCN(C(=O)C2CC2)CC1` [Olaparib], in assay [1], the “effect of SASH1 over-expression on Olaparib response” value is reported as “sufficient to induce resistance”. For the same compound, the “cell lines with increase in sensitivity to Olaparib after depletion of SASH1” value in assay [2] was 9 out of 12.
